Laboratory results taken from paper PMC7819857, “Identification of Inhibitors of Integrin Cytoplasmic Domain Interactions With Syk” (Frontiers in Immunology, 2021).
Where two headings read alike, the source gives them in different places.

Experiments:
[1] = target: T1, integrin β3 cytoplasmic domain (bβ3(fl)) : GST-Syk(6-370) (Homo sapiens, UniProt P43405); assay: ELISA-based orthogonal assay, bβ3(fl) and GST-Syk(6-370); assay type: binding
T1 construct: the tandem SH2 domains of Syk (residues 6-370); made in house; host or cells: E. coli BL21(DE3)
Procedure: For ELISA-based assays, 96-well plates (Costar cat# 9018) were coated overnight at 4°C with neutravidin (Thermo Scientific, cat#31050) in 10 mM Tris pH 9 and 100 mM NaCl. After overnight incubation, non-specific binding sites were blocked with bovine serum albumin (BSA) (2% w/v) for at least 1 h at room temperature. Plates were washed in 25 mM HEPES pH 7.5, 100 mM NaCl, 0.1% BSA, and 0.01% TritonX-100 (assay buffer), and indicated biotinylated β3 peptide was incubated for at least 2 h at room temperature (0.5–3 ug/ml in di-H2O). After washing in the assay buffer, GST-fusion proteins were added (50 ul, indicated concentrations) and incubated at room temperature for 1 h in assay buffer. For compound inhibition studies, compounds were added to GST-fusion proteins (at indicated concentrations) before they were added to plates. Plates were washed 3× with assay buffer (200 ul) to remove unbound GST-fusion protein. Horseradish peroxidase (HRP)-conjugated anti-GST antibody [Polyclonal anti-GST(Z-5)-HRP, Santa Cruz Biotechnology, cat #sc-459 0.2 ug/ml] was incubated in washed plates in 50 ul assay buffer for 45 min at room temperature. After washing, the signal was generated with 1-step Ultra TMB-ELISA (Thermo Scientific, cat#34028), stopped with 2 N H2SO4, and read on a plate reader (SPARK 10M/Tecan) at 450 nm.
Figure 3 Dose-response curves in primary and orthogonal screens. (A) AlphaScreen dose-response curves. […] Data are expressed as mean fluorescence (Fl520) ± range from duplicates, and one representative experiment of “n” performed is shown. (B) Orthogonal ELISA-based dose-response assays. […] Data are expressed as mean abs450 ± SEM from triplicate determinations, and one of three representative experiments is shown. (C) Ceftazidime inhibition of β3 peptide binding to Syk from THP-1 whole cell lysate. THP-1 cell lysate (100 ug) was treated with or without ceftazidime (Ctaz) before incubation with β3-coated avidin-agarose beads, and bound Syk was measured by western blot (example shown in inset). Blank beads served as a negative control. […]

GST-free Syk(6-370) = target: T2, GST-free Syk(6-370) (Homo sapiens, UniProt P43405); assay: Thermal denaturation assay (SYPRO orange); assay type: binding; details: Syk(6-370) 2 µM, dose-dependent
T2 construct: Syk 6-370 (GST tag removed by thrombin cleavage) was used; GST (N, cleaved yes); made in house; host or cells: E. coli BL21(DE3)
Procedure: In this assay, Syk 6-370 (GST tag removed by thrombin cleavage) was used. Thrombin (GE Healthcare cat#270846, reconstituted in PBS to 1 unit/ul) was applied to the GST-Syk 6-370 protein bound to the Glutathione Sepharose beads. The GST-tag was cleaved with 20 unit/1 ml of protein-GST beads in PBS overnight at room temperature. After chromatography and additional cleaning on GST-beads, the purified protein was verified by SDS-PAGE. For thermal denaturation experiments, GST-free Syk(6-370) was used at a final concentration of 2 µM and SYPRO orange (Thermo Scientific, cat# S6650) at a 0.08% (v/v) dilution (from a 5000x stock). Compounds were used at indicated concentrations. Numerous reaction buffers were initially screened, and a final buffer containing 25 mM HEPES (pH 7.5) with 100 mM NaCl was used. Assays were performed in 20 µl volumes, in triplicate, in 384-well plates (Applied Biosystems MicroAmp 384-well clear optical reaction plate, catalogue #4483285). Plates were sealed with Applied Biosystems Optical Adhesive Cover (cat#4360954) and centrifuged for 2 min at 800 × g at room temperature. Thermal denaturation was measured on a Quant Studio 6 Flex Real-time PCR system (Applied Biosystems). […]

[2] = target: T3, integrin β3 cytoplasmic domain : tandem SH2 domains of Syk (GST-Syk(6-370)) (Homo sapiens, UniProt P43405); assay: AlphaScreen of integrin β3 cytoplasmic domain peptide binding to GST-Syk(6-370); details: for fold difference in inhibition, primary screen over false-positive counter screen (hit criterion): re-sourced compounds, counter screen with biotinylated GST; for inhibition of fluorescent signal in the primary screen, re-sourced compounds (hit criterion): re-sourced from a separate commercial source, 25 uM in text, 30 uM in legend of Figure 2C
T3 construct: the tandem SH2 domains of Syk (residues 6-370); made in house; host or cells: E. coli BL21(DE3)
Procedure: The following HTS assay was developed to identify antagonists of the interaction between the integrin β3 cytoplasmic domain and the non-receptor tyrosine kinase Syk. […] ( Figure 1E ). Background signals in this assay were determined by omitting the integrin β3 peptide. Specific assay conditions are described in Table 1 . […] Then, either dimethyl sulfoxide control or compound was added, followed by biotinylated β3 peptide, and avidin-coated AlphaScreen donor beads. After a 4-h incubation period at room temperature (while protected from light), assays plates were read on an Infinite M1000 (Tecan) multiplate reader (Ex. 680/30; Em. 570/100).
Figure 3 Dose-response curves in primary and orthogonal screens. (A) AlphaScreen dose-response curves. […] Data are expressed as mean fluorescence (Fl520) ± range from duplicates, and one representative experiment of “n” performed is shown. (B) Orthogonal ELISA-based dose-response assays. […] Data are expressed as mean abs450 ± SEM from triplicate determinations, and one of three representative experiments is shown. (C) Ceftazidime inhibition of β3 peptide binding to Syk from THP-1 whole cell lysate. THP-1 cell lysate (100 ug) was treated with or without ceftazidime (Ctaz) before incubation with β3-coated avidin-agarose beads, and bound Syk was measured by western blot (example shown in inset). Blank beads served as a negative control. Equal β3 peptide loading was verified by probing blots with avidin-HRP (not shown).

[3] = Solubility under assay conditions; assay type: physicochemical
[4] = Figure 3A: biotinylated-b3(sh) peptide 30 nM, GST-Syk(6-370) 0.3 nM, read-out: IC50, AlphaScreen dose-response

inhibitory activity in ELISA-based orthogonal assay [1] | effect on melting temperature (Tm) of Syk(6-370) (GST-free Syk(6-370)) | IC50 [2, 4] | IC50 ([2]; abstract summary for both compounds, read-out: IC50 range, inhibition of integrin β-subunit cytoplasmic domain binding to the tandem SH2 domains of Syk) | IC50 ([2]; as restated in the Discussion, read-out: IC50 in AlphaScreen assays) | IC50 ([2]; biotinylated-b3(sh) peptide 30 nM, GST-Syk(6-370) 0.3 nM, read-out: value printed in Figure 3A, AlphaScreen dose-response (no measure name)) | fold difference in inhibition, primary screen over false-positive counter screen (hit criterion) [2] | inhibition of fluorescent signal in the primary screen, re-sourced compounds (hit criterion) [2] | solubility under ELISA assay conditions ([3]; ELISA assay buffer, highest doses tested) | solubility for retest in primary and false-positive screens ([3]; re-sourced hit retest, 30 uM) | Molecule
remained active | decreased | 4.9 ± 4.2 µM | 1.02 to 4.9 µM | 4.2 µM | 4.89 ± 4.2 µM | greater than 3 fold | greater than 50% | – | – | NC(=O)c1cc[n+](CC2=C(C(=O)O)N3C(=O)[C@@H](NC(=O)[C@@H](c4ccccc4)S(=O)(=O)[O-])[C@H]3SC2)cc1 [cefsulodin]
– | – | 22.4 ± 4.1 µM | – | – | – | greater than 3 fold | greater than 50% | not soluble at the highest doses tested | – | C=C1c2cccc(O)c2C(=O)C2=C(O)[C@]3(O)C(=O)C(C(N)=O)=C(O)[C@@H](N(C)C)[C@@H]3[C@@H](O)[C@H]12 [methacycline]
– | – | – | – | – | – | – | – | – | lack of solubility | CC[C@@]1(O)C(=O)OCc2c1cc1n(c2=O)Cc2cc3c(CN(C)C)c(O)ccc3nc2-1 [topotecan]
did not demonstrate inhibitory activity | – | 0.038 ± 0.019 µM | – | – | – | greater than 3 fold | greater than 50% | – | – | neomycin sulfate
